Results as given in PMC8970883, “Simultaneous Determination of Seven Phenolic Acids, Two Flavonoids, and Tussilagone in Rat Plasma after Administration of Farfarae Flos Extract by LC–MS/MS” (Evidence-based Complementary and Alternative Medicine : eCAM, 2022).
Like-named read-outs stand apart in the source and are kept apart here.

Assays:
[1] = Stability of QC samples in rat plasma (24 h, freeze-thaw, 4 weeks); assay type: in vitro ADME; conditions: six replicates; for Freeze-thaw stability, percent remaining: freeze-thaw cycles −20°C to 20°C; for Long stability Remain (%): stored at −80°C for 4 weeks; for 24 h stability Remain (%): 24 hours at 20°C
Method: Stock solution of 10 analytical compounds (1.00 mg·mL^−1) and three internal standards (ISs) was dissolved in methanol and placed in the refrigerator before testing. Methanol was used to prepare ferulic acid (IS1), puerarin (IS2), and artemisinin (IS3) solutions to reach a concentration of 1 μg mL^−1, respectively. A specific volume of each analyte stock solution is mixed together to prepare the standard working solution containing 10 analytes with a concentration of 10 times at LLOQ and three levels (high, medium, and low). Quality control (QC) samples for methodological validation were prepared to obtain the final concentration by adding standard working solution (10 μL) into blank plasma samples (100 μL).
Four concentration levels of ICB and ICA were 4, 12, 400, and 12000 ng mL^−1, respectively. Four concentration levels of caffeic acid were 10, 30, 1000, and 30000 ng·mL^−1, respectively.
In the stability test, 24-hour stability (The samples were placed for 24 hours at 20°C and then measured), freeze-thaw cycles (The sample was injected after the temperature changing from −20°C to 20°C), and 4 weeks stability (The sample was determined after stored at −80°C for 4 weeks) of representative QC samples were all tested. All of them were assayed with six replicates.

[2] = previous pharmacokinetic study on chlorogenic acid ref 15; cited from earlier work
[3] = Pharmacokinetic study in rats after intragastric administration of Farfarae Flos extract (plasma, LC-MS/MS); assay type: in vivo; conditions: for Cmax / Tmax / half-life / MRT last / MRT inf: male; for Cmax: rat, plasma, po; for Tmax / half-life / MRT last / MRT inf / AUC(0–24h) / AUC(0–∞): rat plasma; for MRT last: read-out: MRT(0–24h); for MRT inf: read-out: MRT(0–∞)
From the text: A high-performance liquid chromatography instrument was used to separate three types of compounds (Agilent 1200 series, USA). The HPLC instrument is composed of four parts; a G1322A degasser, G1312A Bin Pump, G1367B auto-sampler, and G1316A thermostatic column compartment. Three types of compounds and three internal standards (ISs) were separated on an Eclipse Plus C18 (4.6 × 100 mm, 1.8 μm). The mobile phase was composed of formic acid aqueous solution (A) and formic acid methanol solution (B). The concentration of formic acid in both A and B solution was 0.1% (v/v). The gradient elution was as follows. The proportion of 10% B changes to 40% from 0 min to 3mins. 40% B changes to 90% from 16 to 18 min. B is maintained at 100% from 19 to 28 min. The flow rate, sample injected volume, and column temperature was 0.35 mL·min^−1, 10 μL, and 35°C, respectively.
Quantitative analysis of all samples was performed on Sciex API 3200 with an electrospray ionization (ESI) source. Analyst 1.6.2 workstation for instrument operation, data management, and data analysis were employed to analyze and process data (AB, Sciex). Ten analyzed compounds and three ISs were optimized during multiple reactions monitoring (MRM). […] MRM parameters of CCLA were set at 353.1-191.0. […] MRM parameters of IAB were set as 515.3-353.2 and MRM parameters of IAA were set at 515.2-353.0. MRM parameters of IAC and tussilagone were set as 515.3-352.9, 391.4-217.4, respectively.
Twenty male rats (4 months old, weight 240 ± 20 g) were obtained commercially from Vital River Laboratory Animal Company (Beijing, China). Before the pharmacokinetic experiments, they were free to eat food and drink water for one week for adapting to the environment when the dark light cycle was 12 hours, while the temperature was maintained at 25 ± 5°C. The animal experiments were guided and strictly approved by Tianjin Hospital animal ethics committee. They were fasted for 12 hours and could only drink freely water before intragastric administration of Farfarae Flos extract. Ten rats in each group were employed for eliminating data variation caused by different animal individuals. All rats in groups 1 and group 2 were orally administrated one time at two dosages of Farfarae Flos extract (carboxymethyl cellulose sodium salt (0.5%) was used to suspend the extract to prepare the administration solution 3.90 g·kg^−1 and 7.80 g·kg^−1), respectively. Rats were anesthetized with ether. The heparinized 1.5 mL polythene tube was used to collect bank plasma samples before administering dose of the extract. About 250 μL plasma samples were collected at each collecting points of 5 min, 10 min, 0.25 h, 0.50 h, 0.75 h, 1 h, 2 h, 4 h, 8 h, 12 h, 24 h, and 36 h via fossa orbitalis after dosing. All plasma samples from collecting points need to be centrifuged at 4,000 rpm for ten minutes. The supernatant fluid of centrifuged plasma samples was obtained and immediately stored at −20°C in a refrigerator until they were analyzed.
The maximum concentration (Cmax) and the time to reach the maximum concentration (Tmax) of ten target compounds were directly calculated by the real concentration-time data in the plasma. The data were expressed as mean ± SD.
Ten microliters of ISs solution (contained puerarin, ferulic acid, and artemisinin) and the plasma sample (100 μL) were added into a clean tube, and then acetonitrile (400 μL) was added to precipitate protein. After centrifugation at 14000 rpm for 10 minutes, a mild nitrogen flow was used to evaporate the liquid of the supernatant to dryness. Then, the residue was dissolved in methanol (100 μL). The solution was vortexed for 3 min, mixed for 3 minutes with ultrasound, and centrifuged for 10 min. Finally, the solution (10 μL) was used to detect concentration of ten target compounds in rat plasma.

[4] = high concentration level (3000-30000 ng·mL^−1)
[5] = low concentration level (3-30 ng·mL^−1)
[6] = medium concentration level (100-1000 ng·mL^−1)
[7] = 3.9 g/kg, oral Farfarae Flos extract 3.9 g·kg^−1, mean ± SD
[8] = oral Farfarae Flos extract 3.9 g·kg^−1, mean ± SD
[9] = oral Farfarae Flos extract 7.8 g·kg^−1, mean ± SD

| Structure (SMILES) | Freeze-thaw stability, percent remaining [1, 4] [%] | Long stability Remain (%) [1, 4] [%] | Long stability Remain (%) [1, 5] [%] | Freeze-thaw stability, percent remaining [1, 6] [%] | Cmax [3, 7] [ng/mL] | Tmax [3, 8] [h] | half-life [3, 8] [h] | MRT last [3, 8] [h] | MRT inf [3, 8] [h] | Tmax [3, 9] [h] | half-life [3, 9] [h] | MRT last [3, 9] [h] | MRT inf [3, 9] [h] | AUC(0–24h) [3, 8] [ng/mL ∗ h] | AUC(0–∞) [3, 8] [ng/mL ∗ h] | AUC(0–24h) [3, 9] [ng/mL ∗ h] | AUC(0–∞) [3, 9] [ng/mL ∗ h] | further results |
| --- | --- | --- | --- | --- | --- | --- | --- | --- | --- | --- | --- | --- | --- | --- | --- | --- | --- | --- |
| O=C(/C=C/c1ccc(O)c(O)c1)O[C@@H]1C[C@](O)(C(=O)O)C[C@@H](O)[C@H]1O [CLA, chlorogenic acid] | 115 | 112 | 114 | 88.7 | 538 ± 489 | 0.64 ± 0.244 | 2.16 ± 1.46 | 4.4 ± 1.71 | 5.41 ± 2.04 | 0.38 ± 0.14 | 1.28 ± 0.56 | 4.63 ± 1.36 | 5.32 ± 1.55 | 1425 ± 1046 | 1467 ± 1044 | 3611 ± 1023 | 3692 ± 1052 | MRT [2]: 5.08 ± 0.89 h; Tmax [2]: 0.70 ± 0.19 h |
| O=C(O)/C=C/c1ccc(O)c(O)c1 [Caffeic acid, caffeic acid] | 85.5 | 81.1 | 113 | 87.2 | 96.3 ± 36.6 | 0.23 ± 0.04 | 4.65 ± 4.89 | 6.47 ± 3.05 | 14.8 ± 8.46 | 0.21 ± 0.04 | 2.75 ± 2.71 | 4.81 ± 3.64 | 15.6 ± 10.5 | 338.9 ± 246.4 | 691.7 ± 477.5 | 473.5 ± 273.8 | 723.9 ± 468.5 | 24 h stability Remain (%) [1, 4]: 90.7%; 24 h stability Remain (%) [1, 5]: 81.1%; Freeze-thaw stability, percent remaining [1, 5]: 101%; 24 h stability Remain (%) [1, 6]: 113%; Long stability Remain (%) [1, 6]: 109%; Cmax ([3]; 7.8 g/kg, oral Farfarae Flos extract 7.8 g·kg^−1, mean ± SD): 106 ± 24.4 ng/mL |
